Experimental findings from ChEMBL document CHEMBL5465560, “Selectivity Literature for EUbOPEN Chemogenomic Library” (2024) are described below.

Experiment [1] deals with Histone-lysine N-methyltransferase SETDB1 (Homo sapiens) (UniProt Q15047). As to the kind of experiment: Selectivity interaction (Methyltransferase screen (radiometric assays, panel of 8 PRMTs, 21 protein lysine methyltransferases, 3 DNA methyltransferases, and one RNA methyltransferase)) EUB0000271b SETDB1.
Experiment [2] addresses Casein kinase II subunit alpha' (Homo sapiens) (UniProt P19784). The following applies: at 10 µM.
Experiment [3] has as its target Mitogen-activated protein kinase 10 (Homo sapiens, UniProt P53779). As to the kind of experiment: Selectivity interaction (KinomeScan (DiscoverX)) EUB0001079a MAPK10. The following applies: at 1 µM.
Experiment [4] concerns the target T1, Serine/threonine-protein kinase D3 (Homo sapiens) (UniProt O94806).
T1 sequence (whole entry): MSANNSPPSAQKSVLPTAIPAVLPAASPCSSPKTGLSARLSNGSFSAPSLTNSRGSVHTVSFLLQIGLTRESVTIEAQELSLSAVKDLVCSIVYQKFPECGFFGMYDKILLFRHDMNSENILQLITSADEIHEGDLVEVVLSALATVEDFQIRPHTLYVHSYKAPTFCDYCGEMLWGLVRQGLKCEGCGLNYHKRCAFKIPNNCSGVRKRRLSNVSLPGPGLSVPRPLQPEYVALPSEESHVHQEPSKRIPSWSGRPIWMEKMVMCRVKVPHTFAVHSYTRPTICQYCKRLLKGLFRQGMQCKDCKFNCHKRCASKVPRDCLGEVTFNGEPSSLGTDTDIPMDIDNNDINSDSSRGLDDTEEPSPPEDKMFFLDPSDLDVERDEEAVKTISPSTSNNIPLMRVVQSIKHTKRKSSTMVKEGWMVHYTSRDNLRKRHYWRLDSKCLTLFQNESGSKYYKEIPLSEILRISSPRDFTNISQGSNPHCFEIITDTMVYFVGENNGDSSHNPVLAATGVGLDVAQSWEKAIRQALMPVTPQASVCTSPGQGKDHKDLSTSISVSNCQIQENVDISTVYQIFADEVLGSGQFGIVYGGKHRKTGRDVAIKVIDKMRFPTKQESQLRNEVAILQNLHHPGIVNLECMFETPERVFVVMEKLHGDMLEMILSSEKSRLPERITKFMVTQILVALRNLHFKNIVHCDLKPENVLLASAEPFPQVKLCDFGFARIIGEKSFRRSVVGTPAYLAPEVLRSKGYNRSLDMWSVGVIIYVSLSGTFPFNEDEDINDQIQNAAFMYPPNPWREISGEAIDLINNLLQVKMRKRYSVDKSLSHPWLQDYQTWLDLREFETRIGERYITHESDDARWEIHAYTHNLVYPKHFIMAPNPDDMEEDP
As to the kind of experiment: Selectivity interaction (Kinase screening (Nanosyn)) EUB0000604a PRKD3.

The target in experiment [5] is Protein polybromo-1 (Homo sapiens) (UniProt Q86U86). The experiment can be described thus: Selectivity interaction (Human bromodomain panel (DSF assay)) EUB0000233b PBRM1.
Chain of Protein polybromo-1 (Homo sapiens) (Q86U86 whole entry): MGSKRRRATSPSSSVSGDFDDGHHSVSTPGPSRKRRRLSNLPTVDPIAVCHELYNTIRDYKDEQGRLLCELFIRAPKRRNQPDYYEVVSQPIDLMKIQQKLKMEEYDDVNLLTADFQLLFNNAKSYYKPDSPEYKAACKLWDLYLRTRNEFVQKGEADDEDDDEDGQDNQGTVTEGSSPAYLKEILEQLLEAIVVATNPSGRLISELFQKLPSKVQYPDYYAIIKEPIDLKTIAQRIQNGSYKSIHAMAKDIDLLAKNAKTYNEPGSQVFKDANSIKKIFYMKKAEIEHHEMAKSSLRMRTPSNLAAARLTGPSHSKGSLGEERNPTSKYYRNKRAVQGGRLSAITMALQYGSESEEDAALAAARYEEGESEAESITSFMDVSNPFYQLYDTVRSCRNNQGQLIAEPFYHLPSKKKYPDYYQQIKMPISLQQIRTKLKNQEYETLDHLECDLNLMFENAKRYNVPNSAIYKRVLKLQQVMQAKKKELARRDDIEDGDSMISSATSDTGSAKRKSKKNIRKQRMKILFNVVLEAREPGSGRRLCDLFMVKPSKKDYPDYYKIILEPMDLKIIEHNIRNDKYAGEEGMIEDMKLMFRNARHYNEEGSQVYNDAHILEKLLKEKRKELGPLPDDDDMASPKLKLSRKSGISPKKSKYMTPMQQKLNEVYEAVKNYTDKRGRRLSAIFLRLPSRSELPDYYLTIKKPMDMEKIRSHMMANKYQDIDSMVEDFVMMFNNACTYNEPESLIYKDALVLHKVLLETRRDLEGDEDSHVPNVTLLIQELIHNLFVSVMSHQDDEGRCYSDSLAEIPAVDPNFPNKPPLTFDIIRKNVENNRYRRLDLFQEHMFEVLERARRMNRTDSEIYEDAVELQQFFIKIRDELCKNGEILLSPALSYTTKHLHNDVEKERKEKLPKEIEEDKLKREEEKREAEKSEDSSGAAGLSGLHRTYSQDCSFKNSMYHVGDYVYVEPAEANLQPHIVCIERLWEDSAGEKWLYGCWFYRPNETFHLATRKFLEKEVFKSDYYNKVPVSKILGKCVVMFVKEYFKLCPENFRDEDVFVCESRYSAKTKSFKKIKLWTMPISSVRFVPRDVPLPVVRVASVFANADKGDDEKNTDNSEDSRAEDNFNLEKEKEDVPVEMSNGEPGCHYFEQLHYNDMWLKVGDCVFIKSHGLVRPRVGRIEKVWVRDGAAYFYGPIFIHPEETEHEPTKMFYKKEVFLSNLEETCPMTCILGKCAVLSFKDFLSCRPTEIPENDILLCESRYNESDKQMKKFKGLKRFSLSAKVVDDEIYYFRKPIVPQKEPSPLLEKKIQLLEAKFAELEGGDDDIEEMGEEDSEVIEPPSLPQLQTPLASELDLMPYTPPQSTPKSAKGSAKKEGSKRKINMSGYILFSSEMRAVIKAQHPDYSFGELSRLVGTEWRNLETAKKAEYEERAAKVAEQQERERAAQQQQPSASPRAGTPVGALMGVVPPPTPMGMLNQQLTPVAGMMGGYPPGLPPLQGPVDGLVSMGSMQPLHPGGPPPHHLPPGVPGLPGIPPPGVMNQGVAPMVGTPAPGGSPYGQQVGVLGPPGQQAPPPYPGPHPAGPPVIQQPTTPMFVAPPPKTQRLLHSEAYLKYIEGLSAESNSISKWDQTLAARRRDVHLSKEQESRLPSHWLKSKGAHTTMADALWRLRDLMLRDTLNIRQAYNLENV
Experiment [6] has as its target Macrophage colony-stimulating factor 1 receptor (Homo sapiens) (UniProt P07333). The experiment can be described thus: Selectivity interaction (KinomeScan (DiscoverX)) EUB0000092b CSF1R. Conditions: at 10 µM.
Experiment [7] deals with Ribosomal protein S6 kinase alpha-1 (Homo sapiens, UniProt Q15418). The experiment can be described thus: Selectivity interaction (KinomeScan (DiscoverX)) EUB0000045b RPS6KA1. Conditions: at 1 µM.
Chain of Ribosomal protein S6 kinase alpha-1 (Q15418 whole entry): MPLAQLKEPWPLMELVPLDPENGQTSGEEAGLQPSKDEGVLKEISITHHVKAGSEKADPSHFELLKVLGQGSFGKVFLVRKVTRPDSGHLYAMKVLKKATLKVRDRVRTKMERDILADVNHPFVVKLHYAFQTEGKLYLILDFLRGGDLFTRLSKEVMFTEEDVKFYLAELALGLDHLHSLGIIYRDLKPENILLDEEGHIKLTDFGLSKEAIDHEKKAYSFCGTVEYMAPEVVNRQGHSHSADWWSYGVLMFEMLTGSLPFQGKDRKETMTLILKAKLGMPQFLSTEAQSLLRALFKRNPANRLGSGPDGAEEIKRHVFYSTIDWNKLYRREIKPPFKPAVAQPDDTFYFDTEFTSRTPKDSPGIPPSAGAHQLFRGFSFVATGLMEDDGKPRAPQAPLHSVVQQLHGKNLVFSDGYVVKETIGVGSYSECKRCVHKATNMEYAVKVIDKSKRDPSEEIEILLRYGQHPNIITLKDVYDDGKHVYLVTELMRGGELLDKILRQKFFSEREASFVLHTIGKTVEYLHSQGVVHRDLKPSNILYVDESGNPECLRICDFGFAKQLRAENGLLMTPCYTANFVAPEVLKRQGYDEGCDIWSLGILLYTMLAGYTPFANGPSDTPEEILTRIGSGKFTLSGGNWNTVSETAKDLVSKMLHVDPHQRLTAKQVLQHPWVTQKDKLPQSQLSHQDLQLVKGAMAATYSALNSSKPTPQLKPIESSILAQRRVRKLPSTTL
Experiment [8] deals with T2, Mitogen-activated protein kinase kinase kinase 2 (Homo sapiens) (UniProt Q9Y2U5).
T2 sequence (whole entry): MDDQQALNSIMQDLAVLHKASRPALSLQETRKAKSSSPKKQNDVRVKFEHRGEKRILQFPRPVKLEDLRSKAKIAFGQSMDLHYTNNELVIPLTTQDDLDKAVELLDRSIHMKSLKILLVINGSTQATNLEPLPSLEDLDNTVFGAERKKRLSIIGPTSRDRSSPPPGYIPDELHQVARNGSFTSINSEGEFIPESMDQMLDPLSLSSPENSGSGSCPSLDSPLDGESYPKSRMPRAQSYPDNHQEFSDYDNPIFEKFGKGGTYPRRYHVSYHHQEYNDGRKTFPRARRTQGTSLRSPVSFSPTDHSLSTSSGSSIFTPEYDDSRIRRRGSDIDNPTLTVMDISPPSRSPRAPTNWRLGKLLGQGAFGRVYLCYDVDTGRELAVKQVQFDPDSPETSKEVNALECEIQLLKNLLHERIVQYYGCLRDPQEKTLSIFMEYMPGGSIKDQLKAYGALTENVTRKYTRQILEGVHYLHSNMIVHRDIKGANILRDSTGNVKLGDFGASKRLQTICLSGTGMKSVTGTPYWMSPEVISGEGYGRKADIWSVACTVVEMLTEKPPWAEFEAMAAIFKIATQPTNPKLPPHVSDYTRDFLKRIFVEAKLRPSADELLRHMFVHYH
As to the kind of experiment: Selectivity interaction (KinomeScan (DiscoverX)) EUB0000618a MAP3K2. Conditions: at 10 µM.

Experiment [9] concerns the target T3, Tyrosine-protein kinase Mer (Homo sapiens) (UniProt Q12866).
T3 sequence (whole entry): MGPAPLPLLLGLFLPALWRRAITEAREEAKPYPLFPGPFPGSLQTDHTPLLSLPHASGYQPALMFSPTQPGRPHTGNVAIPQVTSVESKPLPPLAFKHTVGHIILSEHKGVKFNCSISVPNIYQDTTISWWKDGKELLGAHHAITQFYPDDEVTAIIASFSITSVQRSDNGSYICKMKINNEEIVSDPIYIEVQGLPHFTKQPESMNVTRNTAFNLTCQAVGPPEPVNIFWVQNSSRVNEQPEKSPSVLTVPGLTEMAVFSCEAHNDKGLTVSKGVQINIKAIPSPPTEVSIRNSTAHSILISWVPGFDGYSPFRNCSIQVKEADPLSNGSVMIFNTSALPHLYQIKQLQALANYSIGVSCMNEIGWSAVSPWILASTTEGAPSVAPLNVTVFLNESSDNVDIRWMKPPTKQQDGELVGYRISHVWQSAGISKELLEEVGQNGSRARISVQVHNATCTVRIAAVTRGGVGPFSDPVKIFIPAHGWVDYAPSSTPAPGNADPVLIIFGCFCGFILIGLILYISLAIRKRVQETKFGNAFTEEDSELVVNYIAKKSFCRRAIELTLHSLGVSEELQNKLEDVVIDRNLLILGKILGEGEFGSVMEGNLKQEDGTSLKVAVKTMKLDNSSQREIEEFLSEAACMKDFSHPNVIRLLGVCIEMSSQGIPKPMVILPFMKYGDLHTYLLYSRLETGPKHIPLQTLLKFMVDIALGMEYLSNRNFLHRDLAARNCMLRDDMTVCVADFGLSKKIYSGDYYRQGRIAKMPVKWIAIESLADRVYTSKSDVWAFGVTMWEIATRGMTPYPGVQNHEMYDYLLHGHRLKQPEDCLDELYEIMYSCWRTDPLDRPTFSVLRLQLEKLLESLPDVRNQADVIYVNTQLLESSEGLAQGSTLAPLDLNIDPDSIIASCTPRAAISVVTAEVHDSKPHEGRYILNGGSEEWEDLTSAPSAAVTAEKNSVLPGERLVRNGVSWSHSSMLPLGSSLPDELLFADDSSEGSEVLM
The experiment can be described thus: Selectivity interaction (Upstate Kinase Profiler service (Millipore)) EUB0000056c MERTK. The following applies: at 1 µM.

Chain of Mitogen-activated protein kinase 10 (P53779 whole entry): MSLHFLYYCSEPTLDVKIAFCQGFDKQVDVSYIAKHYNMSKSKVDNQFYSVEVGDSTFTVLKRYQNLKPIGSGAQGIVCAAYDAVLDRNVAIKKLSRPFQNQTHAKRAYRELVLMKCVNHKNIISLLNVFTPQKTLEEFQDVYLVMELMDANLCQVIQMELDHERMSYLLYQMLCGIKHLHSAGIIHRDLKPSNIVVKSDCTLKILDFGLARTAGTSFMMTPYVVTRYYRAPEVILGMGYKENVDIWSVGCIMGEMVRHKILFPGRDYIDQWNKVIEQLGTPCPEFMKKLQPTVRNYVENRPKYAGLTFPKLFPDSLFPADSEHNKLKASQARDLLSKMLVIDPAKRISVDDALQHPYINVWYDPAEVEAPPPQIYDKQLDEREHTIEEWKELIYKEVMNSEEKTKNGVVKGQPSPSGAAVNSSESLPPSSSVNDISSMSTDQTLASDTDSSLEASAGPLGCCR
Chain of Casein kinase II subunit alpha' (Homo sapiens) (P19784 whole entry, looked up): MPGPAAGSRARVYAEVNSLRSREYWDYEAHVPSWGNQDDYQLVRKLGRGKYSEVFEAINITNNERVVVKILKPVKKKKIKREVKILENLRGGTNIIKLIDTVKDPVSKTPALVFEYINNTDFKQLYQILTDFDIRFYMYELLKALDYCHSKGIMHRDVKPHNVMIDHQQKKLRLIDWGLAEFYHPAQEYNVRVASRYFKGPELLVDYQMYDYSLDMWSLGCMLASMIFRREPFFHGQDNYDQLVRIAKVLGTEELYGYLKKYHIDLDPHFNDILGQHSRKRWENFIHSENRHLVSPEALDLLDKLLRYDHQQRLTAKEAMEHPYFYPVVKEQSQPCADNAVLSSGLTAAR
Chain of Macrophage colony-stimulating factor 1 receptor (Homo sapiens) (P07333 whole entry): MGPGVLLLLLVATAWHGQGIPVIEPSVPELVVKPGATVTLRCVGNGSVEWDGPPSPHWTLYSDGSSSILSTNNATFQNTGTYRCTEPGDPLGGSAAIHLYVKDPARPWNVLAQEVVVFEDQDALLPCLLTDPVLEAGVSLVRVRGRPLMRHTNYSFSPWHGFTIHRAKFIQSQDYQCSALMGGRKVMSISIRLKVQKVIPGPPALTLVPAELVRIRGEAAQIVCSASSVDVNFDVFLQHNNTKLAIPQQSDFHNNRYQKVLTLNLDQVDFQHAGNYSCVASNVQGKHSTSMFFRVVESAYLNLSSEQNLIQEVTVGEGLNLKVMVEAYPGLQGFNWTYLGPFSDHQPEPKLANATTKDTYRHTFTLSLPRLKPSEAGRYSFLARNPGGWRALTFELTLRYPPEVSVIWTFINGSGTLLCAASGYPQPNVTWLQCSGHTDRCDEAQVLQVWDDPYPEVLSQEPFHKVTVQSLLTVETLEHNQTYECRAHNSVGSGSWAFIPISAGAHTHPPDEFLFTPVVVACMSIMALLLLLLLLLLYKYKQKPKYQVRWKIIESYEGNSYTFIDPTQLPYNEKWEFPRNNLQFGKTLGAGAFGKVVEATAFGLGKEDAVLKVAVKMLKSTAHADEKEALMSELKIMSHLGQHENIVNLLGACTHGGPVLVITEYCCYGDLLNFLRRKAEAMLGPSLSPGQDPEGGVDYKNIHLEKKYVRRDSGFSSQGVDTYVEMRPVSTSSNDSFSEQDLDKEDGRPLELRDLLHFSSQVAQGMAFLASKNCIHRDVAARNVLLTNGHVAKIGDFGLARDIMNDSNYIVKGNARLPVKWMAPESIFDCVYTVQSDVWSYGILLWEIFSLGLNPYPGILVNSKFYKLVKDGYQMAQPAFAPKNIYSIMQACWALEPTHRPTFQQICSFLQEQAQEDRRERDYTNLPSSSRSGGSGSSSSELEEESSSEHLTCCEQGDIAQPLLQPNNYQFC

With `Cc1cc(C)cc([C@@H]2c3cc(C)ccc3NC(=O)CN2C(=O)c2ccc(Br)s2)c1`, the % of activity was determined as 102% in experiment [1] (at 1 µM) and 104% in [1] (at 10 µM).
Compound `Cc1cc([C@@H](C)Nc2ccccc2C(=O)O)c2nc(N3CCOCC3)cc(=O)n2c1` [AZD-6482] displayed a % of control in [2] of 100%.
For the compound `Nc1cnc(N2CCc3cc(S(=O)(=O)Nc4c(F)cc(Cl)cc4F)cc(N4CCCC4=O)c32)nc1` [TP-020n], the % of control in experiment [3] was determined as 94%.
`Cc1cnc(Nc2ccc(F)cc2Cl)nc1-c1c[nH]c(C(=O)N[C@H](CO)c2cccc(Cl)c2)c1` yielded a % of inhibition in experiment [4] of 21%.
In turn, `CN(C)CCCOc1ccc(-c2cc(NCCCn3cccn3)nc(S(C)(=O)=O)n2)cc1` yielded a dTM in experiment [5] of under 2 K.
In experiment [6], `CCC(=O)N1CCN(c2ccc(-n3c(=O)ccc4cnc5ccc(-c6cnc7ccccc7c6)cc5c43)cc2C(F)(F)F)CC1` had a % of control of 24%.
As to `C=CC(=O)Nc1cc(-n2c(=O)ccc3cnc4ccc(-c5ccc(NS(C)(=O)=O)cc5)cc4c32)ccc1C`, the % of control in experiment [7] worked out at 91%.
`O[C@H]1CC[C@H](Nc2ncc3nc(Nc4c(F)cc(F)cc4F)n([C@H]4CCOC4)c3n2)CC1` came in with a % of control in [8] of 82%.
On to `Cc1ccc(-c2ccc3c(ccc4sc5c(c43)NC[C@@H](C)NC5=O)n2)cn1`, for which, in experiment [9], the % of inhibition was determined as 97%.
